{
  "source": "patent US7189714B2",
  "about": "“N-type calcium channel antagonists for the treatment of pain” (Astrazeneca AB, priority 2000, dated 2007)",
  "data": [
    {"system": "L-type calcium channel", "assay": "L-channel FLIPR assay (SK-N-SH cells)", "format": "cell-based, human", "conditions": "L-channel reference on each plate, near IC50; read-out: reference concentration near IC50", "units": {"IC50": "µM"}, "method": "An immortalized cell line, SK-N—SH, derived from human neuroblastoma cells (ATCC product # HTB-11) was used for all experiments. Cells were grown in T75 flasks containing Eagle's minimum essential medium (MEM) w/Earle's salts, with 0.1 mM non-essential amino acids, 1.0 mM Na pyruvate and 10% fetal bovine serum (FBS; Cat. # SLM-034-B, Specialty Media). Cells were grown to 100% confluency (by visual microscopic estimation) before sub-culture. Cells were sub-cultured at a ratio of 1:3 by first rinsing with 3 mL PBS, replacing the PBS with PBS containing 0.25% trypsin until the cells detached from the surface. 1 mL of the resulting suspension was then added to a new flask containing 10 mL fresh media. Cells were then incubated (37° C., 5% CO2), and media was exchanged about 3 days after subculturing.\nB. Preparation of Cells for Experiments:\nCells used for experiments were at the 100% confluency growth stage. Each flask provided enough cells for three 96-well plates. […]\nMaximum signal (L-channel+non-specific): 12 wells received 20 μL buffer addition only (no nitrendipine) in the first solution addition sequence to define the maximal K^+-evoked Ca^2+ increase mediated by L-channels+non-specific (non-L-channel mediated fluorescence increase). The coefficient of variation amongst these wells for the K^+-evoked peak increase in fluorescence units was typically less than 12%. […]", "values": [
      {"molecule": "CCOC(=O)C1=C(C)NC(C)=C(C(=O)OC)C1c1cccc([N+](=O)[O-])c1", "note": "(centres unmarked) [nitrendipine]", "IC50": "~0.03"}
    ]},
    {"molecular_target": "N-type calcium channel (Homo sapiens, UniProt Q00975)", "sequence (Q00975 whole entry)": "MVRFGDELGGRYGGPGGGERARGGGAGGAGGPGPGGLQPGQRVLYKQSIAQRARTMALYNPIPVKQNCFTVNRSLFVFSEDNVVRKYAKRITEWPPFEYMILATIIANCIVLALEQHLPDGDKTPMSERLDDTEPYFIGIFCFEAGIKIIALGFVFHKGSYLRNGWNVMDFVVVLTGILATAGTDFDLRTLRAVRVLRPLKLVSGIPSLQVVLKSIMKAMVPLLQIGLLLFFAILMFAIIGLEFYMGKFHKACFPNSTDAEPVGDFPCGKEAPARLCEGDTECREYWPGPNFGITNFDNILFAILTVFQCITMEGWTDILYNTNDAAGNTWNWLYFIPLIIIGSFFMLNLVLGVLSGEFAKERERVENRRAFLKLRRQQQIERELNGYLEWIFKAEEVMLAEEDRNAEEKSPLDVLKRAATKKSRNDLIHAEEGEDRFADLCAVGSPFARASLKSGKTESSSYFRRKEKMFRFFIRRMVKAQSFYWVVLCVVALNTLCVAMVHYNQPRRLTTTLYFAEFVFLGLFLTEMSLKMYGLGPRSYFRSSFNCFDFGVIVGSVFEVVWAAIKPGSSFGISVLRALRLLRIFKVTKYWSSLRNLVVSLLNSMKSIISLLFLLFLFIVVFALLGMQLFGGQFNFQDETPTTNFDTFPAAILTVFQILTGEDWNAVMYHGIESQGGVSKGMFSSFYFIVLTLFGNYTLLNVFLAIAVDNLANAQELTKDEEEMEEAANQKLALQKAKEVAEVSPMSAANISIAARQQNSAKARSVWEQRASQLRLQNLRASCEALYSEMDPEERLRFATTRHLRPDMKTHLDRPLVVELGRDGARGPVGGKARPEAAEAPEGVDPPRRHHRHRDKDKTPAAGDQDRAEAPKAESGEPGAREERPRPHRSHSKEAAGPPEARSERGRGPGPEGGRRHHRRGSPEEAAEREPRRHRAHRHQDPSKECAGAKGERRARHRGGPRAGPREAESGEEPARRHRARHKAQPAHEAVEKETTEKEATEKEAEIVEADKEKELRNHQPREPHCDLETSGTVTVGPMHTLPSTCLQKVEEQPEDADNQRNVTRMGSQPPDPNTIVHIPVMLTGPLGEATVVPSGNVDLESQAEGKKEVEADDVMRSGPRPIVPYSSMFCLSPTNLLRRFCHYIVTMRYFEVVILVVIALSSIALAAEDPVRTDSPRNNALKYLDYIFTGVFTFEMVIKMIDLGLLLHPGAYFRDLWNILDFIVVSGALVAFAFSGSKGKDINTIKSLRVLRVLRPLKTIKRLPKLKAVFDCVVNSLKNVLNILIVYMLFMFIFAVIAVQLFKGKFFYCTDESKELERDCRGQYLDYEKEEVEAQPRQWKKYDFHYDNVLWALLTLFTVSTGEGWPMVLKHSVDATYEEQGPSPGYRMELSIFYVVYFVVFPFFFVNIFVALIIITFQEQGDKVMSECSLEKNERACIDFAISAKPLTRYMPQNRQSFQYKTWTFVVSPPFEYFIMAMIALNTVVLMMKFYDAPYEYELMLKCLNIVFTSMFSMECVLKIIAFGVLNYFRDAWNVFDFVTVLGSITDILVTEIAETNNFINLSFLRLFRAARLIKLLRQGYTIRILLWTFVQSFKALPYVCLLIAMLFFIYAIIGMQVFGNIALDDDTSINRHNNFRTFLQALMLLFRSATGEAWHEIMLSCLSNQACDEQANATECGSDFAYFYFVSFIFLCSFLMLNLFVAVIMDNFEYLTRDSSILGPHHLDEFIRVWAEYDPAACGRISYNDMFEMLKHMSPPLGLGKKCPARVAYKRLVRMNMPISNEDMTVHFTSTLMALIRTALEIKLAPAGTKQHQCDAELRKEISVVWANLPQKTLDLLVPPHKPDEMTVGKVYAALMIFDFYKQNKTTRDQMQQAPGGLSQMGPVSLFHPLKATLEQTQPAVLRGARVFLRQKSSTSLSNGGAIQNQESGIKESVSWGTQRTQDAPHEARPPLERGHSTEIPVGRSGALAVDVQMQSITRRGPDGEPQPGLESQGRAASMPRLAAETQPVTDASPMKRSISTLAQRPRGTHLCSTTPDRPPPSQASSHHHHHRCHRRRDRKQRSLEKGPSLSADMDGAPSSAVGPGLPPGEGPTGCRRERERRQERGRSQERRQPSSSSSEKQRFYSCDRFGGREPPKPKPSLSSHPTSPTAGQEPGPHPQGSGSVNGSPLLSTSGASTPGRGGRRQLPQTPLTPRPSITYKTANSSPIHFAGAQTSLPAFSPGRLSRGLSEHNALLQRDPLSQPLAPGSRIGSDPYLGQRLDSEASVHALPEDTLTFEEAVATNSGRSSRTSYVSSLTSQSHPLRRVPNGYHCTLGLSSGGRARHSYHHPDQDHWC", "sequence (P54289 25-1103 partner)": "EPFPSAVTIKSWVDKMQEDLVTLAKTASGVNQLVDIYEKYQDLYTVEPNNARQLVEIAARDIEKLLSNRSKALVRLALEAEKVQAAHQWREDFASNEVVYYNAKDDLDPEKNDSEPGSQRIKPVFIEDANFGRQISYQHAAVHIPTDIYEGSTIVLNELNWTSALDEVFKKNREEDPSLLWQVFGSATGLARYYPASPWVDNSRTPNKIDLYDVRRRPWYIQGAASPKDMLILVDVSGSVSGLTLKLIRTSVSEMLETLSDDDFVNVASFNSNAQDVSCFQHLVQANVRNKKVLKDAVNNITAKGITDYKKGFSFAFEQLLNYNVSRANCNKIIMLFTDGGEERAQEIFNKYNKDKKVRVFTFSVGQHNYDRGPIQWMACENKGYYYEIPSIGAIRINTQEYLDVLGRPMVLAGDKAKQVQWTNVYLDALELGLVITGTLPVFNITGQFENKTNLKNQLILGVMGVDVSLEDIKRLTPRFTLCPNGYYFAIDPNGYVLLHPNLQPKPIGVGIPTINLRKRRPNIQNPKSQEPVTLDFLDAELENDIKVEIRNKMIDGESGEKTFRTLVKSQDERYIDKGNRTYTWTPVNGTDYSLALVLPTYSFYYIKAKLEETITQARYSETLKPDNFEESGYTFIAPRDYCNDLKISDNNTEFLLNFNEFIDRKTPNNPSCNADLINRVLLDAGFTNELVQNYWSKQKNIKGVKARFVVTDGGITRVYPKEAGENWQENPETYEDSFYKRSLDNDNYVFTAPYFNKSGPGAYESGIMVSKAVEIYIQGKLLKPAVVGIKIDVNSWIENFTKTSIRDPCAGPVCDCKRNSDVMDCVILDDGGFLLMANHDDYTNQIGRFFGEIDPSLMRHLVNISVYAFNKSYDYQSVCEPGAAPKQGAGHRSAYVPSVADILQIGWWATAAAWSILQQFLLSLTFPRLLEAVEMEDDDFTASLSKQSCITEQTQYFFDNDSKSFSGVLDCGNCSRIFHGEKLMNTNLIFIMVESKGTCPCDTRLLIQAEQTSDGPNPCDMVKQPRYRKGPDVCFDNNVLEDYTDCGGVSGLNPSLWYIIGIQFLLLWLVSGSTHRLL", "sequence (P54284 whole entry partner)": "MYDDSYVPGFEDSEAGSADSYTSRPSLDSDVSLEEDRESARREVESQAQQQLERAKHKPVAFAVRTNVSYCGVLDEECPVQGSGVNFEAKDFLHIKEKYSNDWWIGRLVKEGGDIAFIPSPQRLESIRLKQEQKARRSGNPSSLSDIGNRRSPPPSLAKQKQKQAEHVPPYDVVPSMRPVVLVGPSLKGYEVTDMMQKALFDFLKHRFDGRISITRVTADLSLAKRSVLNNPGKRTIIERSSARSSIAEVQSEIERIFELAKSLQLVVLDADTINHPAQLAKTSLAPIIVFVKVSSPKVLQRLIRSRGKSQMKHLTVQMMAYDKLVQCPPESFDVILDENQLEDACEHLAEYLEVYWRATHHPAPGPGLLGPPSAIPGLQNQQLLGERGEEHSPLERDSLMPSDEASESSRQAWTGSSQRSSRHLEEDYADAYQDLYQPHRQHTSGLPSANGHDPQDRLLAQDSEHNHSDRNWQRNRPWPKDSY", "assay": "N-channel FLIPR assay (inhibition of K+-evoked calcium flux in differentiated IMR32 cells)", "format": "cell-based", "conditions": "80 mM K+ stimulus", "units": {"IC50": "µM"}, "values": [
      {"molecule": "2-(3-Fluorophenyl)-N4-morpholin-4-yl-N6-cyclopropyl-quinoline-4,6-diamine [Example 32]", "IC50": 6.46},
      {"molecule": "Nc1ccc2nc(-c3ccc(Cl)cc3)cc(N)c2c1", "note": "[Example 1, 2-(4-Chlorophenyl)-quinoline-4,6-diamine]", "IC50": 36.3},
      {"molecule": "Nc1ccc2nc(-c3ccccc3)cc(N)c2c1", "note": "[Example 3, 2-Phenyl-quinoline-4,6-diamine]", "IC50": 17.2},
      {"molecule": "Nc1ccc2nc(-c3ccccc3)cc(NCc3ccccc3)c2c1", "note": "[Example 4, 2-Phenyl-N4-benzyl-quinoline-4,6-diamine]", "IC50": 3.54},
      {"molecule": "Nc1ccc2nc(-c3cccc(C(F)(F)F)c3)cc(N)c2c1", "note": "[Example 5, 2-(3-Trifluoromethylphenyl)-quinoline-4,6-diamine]", "IC50": 5.83},
      {"molecule": "CN(C)c1cc(-c2ccccc2)nc2ccc(N)cc12", "note": "[Example 6, 2-Phenyl-N4,N4-dimethyl-quinoline-4,6-diamine]", "IC50": 6.11},
      {"molecule": "CCCNc1cc(-c2ccccc2)nc2ccc(N)cc12", "note": "[Example 7, 2-Phenyl-N4-propyl-quinoline-4,6-diamine]", "IC50": 1.99},
      {"molecule": "COc1cccc(-c2cc(N)c3cc(N)ccc3n2)c1", "note": "[Example 9, 2-(3-Methoxyphenyl)-quinoline-4,6-diamine]", "IC50": 2.71},
      {"molecule": "Nc1ccc2nc(-c3cccc(F)c3)cc(N)c2c1", "note": "[Example 10, 2-(3-Fluorophenyl)-quinoline-4,6-diamine]", "IC50": 3.81},
      {"molecule": "COc1ccc(-c2cc(N)c3cc(N)ccc3n2)cc1", "note": "[Example 11, 2-(4-Methoxyphenyl)-quinoline-4,6-diamine]", "IC50": 6.91},
      {"molecule": "CCCCCc1cc(N)c2cc(N)ccc2n1", "note": "[Example 12, 2-Pentyl-quinoline-4,6-diamine]", "IC50": 1.89},
      {"molecule": "COc1ccccc1-c1cc(N)c2cc(N)ccc2n1", "note": "[Example 13, 2-(2-Methoxyphenyl)-quinoline-4,6-diamine]", "IC50": 10.5},
      {"molecule": "Nc1ccc2nc(COc3ccccc3)cc(N)c2c1", "note": "[Example 14, 2-Phenoxymethyl-quinoline-4,6-diamine]", "IC50": 2.59},
      {"molecule": "Nc1ccc2nc(-c3ccccc3Cl)cc(N)c2c1", "note": "[Example 15, 2-(2-Chlorophenyl)-quinoline-4,6-diamine]", "IC50": 4.13},
      {"molecule": "Nc1ccc2nc(-c3ccccc3F)cc(N)c2c1", "note": "[Example 16, 2-(2-Fluorophenyl)-quinoline-4,6-diamine]", "IC50": 81.6},
      {"molecule": "Nc1ccc2nc(-c3ccc(C4CCCCC4)cc3)cc(N)c2c1", "note": "[Example 19, 2-(4-Cyclohexylphenyl)-quinoline-4,6-diamine]", "IC50": 7.96},
      {"molecule": "Nc1ccc2nc(-c3ccc(Br)cc3)cc(N)c2c1", "note": "[Example 20, 2-(4-Bromophenyl)-quinoline-4,6-diamine]", "IC50": 3.18},
      {"molecule": "Nc1ccc2nc(-c3cccc(Br)c3)cc(N)c2c1", "note": "[Example 21, 2-(3-Bromophenyl)-quinoline-4,6-diamine]", "IC50": 2.54},
      {"molecule": "CNc1ccc2nc(-c3ccccc3F)cc(N)c2c1", "note": "[Example 23, 2-(2-Fluorophenyl)-N6-methyl-quinoline-4,6-diamine]", "IC50": 3.51},
      {"molecule": "CNc1ccc2nc(-c3cccc(F)c3)cc(N)c2c1", "note": "[Example 24, 2-(3-Fluorophenyl)-N6-methyl-quinoline-4,6-diamine]", "IC50": 2.68},
      {"molecule": "Nc1ccc2nc(-c3cccc(Cl)c3)cc(N)c2c1", "note": "[Example 25, 2-(3-Chlorophenyl)-quinoline-4,6-diamine]", "IC50": 4.83},
      {"molecule": "CN(C)c1ccc2nc(-c3cccc(F)c3)cc(N(C)C)c2c1", "note": "[Example 26, 2-(3-Fluorophenyl)-N4,N4,N6,N6-tetramethyl-quinoline-4,6-diamine]", "IC50": 4.9},
      {"molecule": "CN(C)c1cc(-c2cccc(F)c2)nc2ccc(N)cc12", "note": "[Example 27, 2-(3-Fluorophenyl)-N4,N4-dimethyl-quinoline-4,6-diamine]", "IC50": 5.55},
      {"molecule": "CNc1ccc2nc(-c3cccc(F)c3)cc(N(C)C)c2c1", "note": "[Example 28, 2-(3-Fluorophenyl)-N4,N4,N6-trimethyl-quinoline-4,6-diamine]", "IC50": 3.81},
      {"molecule": "CN(C)c1cc(-c2cccc(F)c2)nc2ccc(NC3CC3)cc12", "note": "[Example 29, 2-(3 -Fluorophenyl)-N4,N4-dimethyl-N6-cyclopropyl-quinoline-4,6-diamine]", "IC50": 5.44},
      {"molecule": "CC(C)Nc1ccc2nc(-c3cccc(F)c3)cc(N(C)C)c2c1", "note": "[Example 33, 2-(3-Fluorophenyl)-N4,N4-dimethyl-N6-isopropyl-quinoline-4,6-diamine]", "IC50": 2.82},
      {"molecule": "CNc1ccc2nc(-c3cccc(F)c3)cc(NC)c2c1", "note": "[Example 37, 2-(3-Fluorophenyl)-N4,N6-dimethyl-quinoline-4,6-diamine]", "IC50": 2.18},
      {"molecule": "CN(C)c1cc(-c2cccc(F)c2)nc2ccc(N3CCCC3)cc12", "note": "[Example 38, 2-(3-Fluorophenyl)-N4,N4-dimethyl-6-pyrrolidin-1-yl-quinolin-4-amine]", "IC50": 9.15},
      {"molecule": "CNc1cc(-c2cccc(F)c2)nc2ccc(N)cc12", "note": "[Example 39, 2-(3-Fluorophenyl)-N4-methyl-quinoline-4,6-diamine]", "IC50": 4.53},
      {"molecule": "CN(C)c1cc(-c2cccc(F)c2)nc2ccc(Nc3cccc(N)n3)cc12", "note": "[Example 40, 2-(3-Fluorophenyl)-N4,N4-dimethyl-N6-(6-amino-pyridin-2-yl)-quinoline-4,6-diamine]", "IC50": 2.98},
      {"molecule": "CNc1cc(-c2cccc(F)c2)nc2ccc(NC3CC3)cc12", "note": "[Example 41, 2-(3-Fluorophenyl)-N4-methyl-N6-cyclopropyl-quinoline-4,6-diamine]", "IC50": 1.8},
      {"molecule": "Cc1c(Nc2ccc3nc(-c4cccc(F)c4)cc(N(C)C)c3c2)c(=O)n(-c2ccccc2)n1C", "note": "[Example 44, 2-(3-Fluorophenyl)-N4,N4-dimethyl-N6-4-(1,5-dimethyl-2phenyl-1,2-dihydro-pyrazol-3-one)quinoline-4,6-diamine]", "IC50": 5.39},
      {"molecule": "CN(C)c1cc(-c2cccc(F)c2)nc2ccc(NC3CCC3)cc12", "note": "[Example 48, 2-(3-Fluorophenyl)-N4,N4-dimethyl-N6-cyclobutyl-quinoline-4,6-diamine]", "IC50": 7.74},
      {"molecule": "CN(C)c1cc(-c2cccc(F)c2)nc2ccc(NCC3CC3)cc12", "note": "[Example 49, 2-(3-Fluorophenyl)-N4,N4-dimethyl-N6-cyclopropylmethyl-quinoline-4,6-diamine]", "IC50": 5.88},
      {"molecule": "CN(C)c1cc(-c2cccc(F)c2)nc2ccc(NC3CCCC3)cc12", "note": "[Example 50, 2-(3-Fluorophenyl)-N4,N4-dimethyl-N6-cyclopentyl-quinoline-4,6-diamine]", "IC50": 5.9},
      {"molecule": "C=CCNc1ccc2nc(-c3cccc(F)c3)cc(N(C)C)c2c1", "note": "[Example 51, 2-(3-Fluorophenyl)-N4,N4-dimethyl-N6-allyl-quinoline-4,6-diamine]", "IC50": 3.78},
      {"molecule": "CN(C)c1cc(-c2cccc(Cl)c2)nc2ccc(NC3CC3)cc12", "note": "[Example 53, 2-(3-Chlorophenyl)-N4,N4-dimethyl-N6-cyclopropyl-quinoline-4,6-diamine]", "IC50": 7.19},
      {"molecule": "COCCNc1cc(-c2cccc(F)c2)nc2ccc(NC3CC3)cc12", "note": "[Example 54, 2-(3-Fluorophenyl)-N4-(2-methoxy-ethyl)-N6-cyclopropyl-quinoline-4,6-diamine]", "IC50": 1.75},
      {"molecule": "CN(C)c1cc(-c2cccc(N3CCOCC3)c2)nc2ccc(NC3CC3)cc12", "note": "[Example 55, 2-(3-Morpholin-4-ylphenyl)-N4,N4-dimethyl-N6-cyclopropyl-quinoline-4,6-diamine]", "IC50": 2.31},
      {"molecule": "CN(C)c1cc(-c2cccc(N3CCOCC3)c2)nc2ccc(N)cc12", "note": "[Example 56, 2-(3-Morpholin-4-ylphenyl)-N4,N4-dimethyl-quinoline-4,6-diamine]", "IC50": 6.38}
    ]}
  ]
}
